Where “and” joins values, the source holds several entries; their conditions need not be identical. Equal entries are not always repeated.
How the values were obtained:
[1] = mn = molality of the nth substance listed, in mol/kg; settings: 101 kPa, Liquid; for speed of sound: Pulse-echo method
[2] = 101 kPa, Liquid

[Ni+2].[O-][Cl+3]([O-])([O-])[O-].[O-][Cl+3]([O-])([O-])[O-] [nickel perchlorate] + CC#N
[1]
Settings | mass density, 288.13 K [kg/m3] | mass density, 293.15 K [kg/m3] | mass density, 298.15 K [kg/m3] | mass density, 303.15 K [kg/m3] | mass density, 308.15 K [kg/m3] | mass density, 313.15 K [kg/m3] | mass density, 323.15 K [kg/m3] | speed of sound, 298.15 K [m/s]
m1 = 0.0492 | 797.088 | 791.73 | 786.35 | 780.945 | 775.512 | 770.049 | 759.023 | –
m1 = 0.04923 | – | – | – | – | – | – | – | 1281.8
m1 = 0.08198 | – | – | – | – | – | – | – | 1284
m1 = 0.082 | 803.621 | 798.268 | 792.896 | 787.511 | 782.087 | 776.641 | 765.646 | –
m1 = 0.1087 | 809.018 | 803.673 | 798.312 | 792.927 | 787.516 | 782.077 | 771.11 | 1285.8
m1 = 0.135 | 814.36 | 809.021 | 803.671 | 798.291 | 792.889 | 787.46 | 776.511 | 1287.5
m1 = 0.1611 | 819.735 | 814.406 | 809.058 | 803.686 | 798.299 | 792.88 | 781.957 | 1289.4
m1 = 0.1844 | 824.54 | 819.217 | 813.878 | 808.519 | 803.134 | 797.731 | 786.838 | 1290.9
m1 = 0.2114 | 830.147 | 824.83 | 819.495 | 814.141 | 808.766 | 803.366 | 792.486 | 1292.7
m1 = 0.2353 | 835.248 | 829.938 | 824.608 | 819.261 | 813.893 | 808.502 | 797.637 | 1294.1
m1 = 0.2607 | 840.618 | 835.309 | 829.987 | 824.647 | 819.287 | 813.905 | 803.067 | 1295.8

CC#N [acetonitrile] + [Cu+2].[O-][Cl+3]([O-])([O-])[O-].[O-][Cl+3]([O-])([O-])[O-]
[1], m2 = 0
Settings | mass density [kg/m3]
288.13 K | 787.308
293.15 K | 781.932
298.15 K | 776.532
303.15 K | 771.102
308.15 K | 765.645
313.15 K | 760.155
323.15 K | 749.067

CC#N [acetonitrile]
[2]
Settings | mass density
288.13 K | 787.307 kg/m3 and 787.308 kg/m3 and 787.312 kg/m3
288.15 K | 787.308 kg/m3
293.15 K | 781.933 kg/m3 [middle of 4 runs]
298.15 K | 776.532 kg/m3 [middle of 4 runs]
303.15 K | 771.106 kg/m3 [middle of 4 runs]
308.15 K | 765.645 kg/m3 and 765.664 kg/m3 and 765.649 kg/m3
313.15 K | 760.158 kg/m3 [middle of 4 runs]
323.15 K | 749.07 kg/m3 [middle of 4 runs]

CC#N [acetonitrile] + [Mn+2].[O-][Cl+3]([O-])([O-])[O-].[O-][Cl+3]([O-])([O-])[O-]
[1], m2 = 0
Settings | mass density [kg/m3]
288.15 K | 787.308
293.15 K | 781.932
298.15 K | 776.531
303.15 K | 771.102
308.15 K | 765.645
313.15 K | 760.156
323.15 K | 749.07

CC#N [acetonitrile] + [O-][Cl+3]([O-])([O-])[O-].[O-][Cl+3]([O-])([O-])[O-].[Zn+2]
[1], m2 = 0
Settings | mass density [kg/m3]
288.13 K | 787.312
293.15 K | 781.934
298.15 K | 776.535
303.15 K | 771.106
308.15 K | 765.649
313.15 K | 760.158
323.15 K | 749.07

CC#N [acetonitrile] + [Co+2].[O-][Cl+3]([O-])([O-])[O-].[O-][Cl+3]([O-])([O-])[O-]
[1], m2 = 0
Settings | mass density [kg/m3]
288.13 K | 787.307
293.15 K | 781.933
298.15 K | 776.535
303.15 K | 771.114
308.15 K | 765.664
313.15 K | 760.181
323.15 K | 749.107

CC#N [acetonitrile] + [Ni+2].[O-][Cl+3]([O-])([O-])[O-].[O-][Cl+3]([O-])([O-])[O-]
[1], m2 = 0
Settings | mass density [kg/m3]
288.13 K | 787.307
293.15 K | 781.93
298.15 K | 776.53
303.15 K | 771.101
308.15 K | 765.645
313.15 K | 760.155
323.15 K | 749.068

[Cu+2].[O-][Cl+3]([O-])([O-])[O-].[O-][Cl+3]([O-])([O-])[O-] [copper perchlorate] + CC#N
[1]
Settings | mass density, 288.13 K [kg/m3] | mass density, 293.15 K [kg/m3] | mass density, 298.15 K [kg/m3] | mass density, 303.15 K [kg/m3] | mass density, 308.15 K [kg/m3] | mass density, 313.15 K [kg/m3] | mass density, 323.15 K [kg/m3] | speed of sound, 298.15 K [m/s]
m1 = 0.0572 | 798.765 | 793.409 | 788.03 | 782.624 | 777.19 | 771.728 | 760.698 | –
m1 = 0.05724 | – | – | – | – | – | – | – | 1281.6
m1 = 0.1013 | 807.682 | 802.334 | 796.961 | 791.568 | 786.147 | 780.696 | 769.697 | 1284.3
m1 = 0.1335 | 814.263 | 808.919 | 803.556 | 798.17 | 792.754 | 787.314 | 776.342 | 1286.2
m1 = 0.1645 | 820.66 | 815.323 | 809.967 | 804.588 | 799.184 | 793.753 | 782.802 | 1288.2
m1 = 0.1975 | 827.568 | 822.238 | 816.887 | 811.516 | 806.117 | 800.692 | 789.754 | 1290
m1 = 0.2264 | 833.698 | 828.373 | 823.028 | 817.66 | 812.272 | 806.857 | 795.939 | 1291.8
m1 = 0.258 | 840.493 | 835.168 | 829.828 | 824.467 | 819.083 | 813.673 | 802.774 | 1293.7
m1 = 0.285 | 846.334 | 841.014 | 835.678 | 830.323 | 824.946 | 819.544 | 808.66 | 1295.4
m1 = 0.3172 | 853.453 | 848.137 | 842.806 | 837.456 | 832.084 | 826.687 | 815.817 | 1297.3
